Assay results taken from patent US8551999B2, “Heterocyclic compound and pharmaceutical composition thereof” (Otsuka Pharmaceutical Co., Ltd., priority 2007, dated 2013).

| Structure (SMILES) | melting point |
| --- | --- |
| Br.Cc1ccc(S(=O)(=O)N(C)c2ccc(Oc3ccc4cc(C(=O)N5CCN(Cc6ccc(OC(F)F)cc6)CC5)n(C)c4c3)nc2)cc1 [Example 532, N-(6-{2-[4-(4-Difluoromethoxybenzyl)piperazine-1-carbonyl]-1-methyl-1H-indol-6-yloxy}pyridin-3-yl)-4,N-dimethylbenzene-sulfonamide hydrobromide] | 214.5 to 218.5 °C (dec.) |
| CC(C)CN1CCN(C(=O)c2cc3ccc(Oc4ccc(N(C)C(=O)c5ccc(C(F)(F)F)cc5)cn4)cc3n2C)CC1.Cl | 253.1 to 254.5 °C |
| Br.Br.Cc1nc(Oc2ccc3c(c2)cc(C(=O)N2CCN(Cc4ccncc4)CC2)n3C)ccc1NC(=O)c1ccc(C(F)(F)F)cc1 [Example 565, N-{2-Methyl-6-[1-methyl-2-(4-pyridin-4-ylmethylpiperazine-1-carbonyl)-1H-indol-5-yloxy]pyridin-3-yl}-4-trifluoromethyl-benzamide dihydrobromide] | 223 to 225 °C (dec.) |
| Br.Cc1cc(Oc2ccc3cc(C(=O)N4CCN(Cc5ccc(OC(F)F)cc5)CC4)n(C)c3c2)ncc1N(C)S(=O)(=O)c1ccc(Cl)c(Cl)c1 [Example 311, 3,4-Dichloro-N-(6-{2-[4-(4-difluoromethoxybenzyl)piperazine-1-carbonyl]-1-methyl-1H-indol-6-yloxy}-4-methylpyridin-3-yl)-N-methylbenzenesulfonamide hydrobromide] | 213.5 to 215.3 °C |
| Br.CN(C(=O)c1ccc(C(F)(F)F)cc1)c1ccc(Oc2ccc3c(c2)cc(C(=O)N2CCN(Cc4ccc(C#N)cc4)CC2)n3C)nc1 [Example 339, N-(6-{2-[4-(4-Cyanobenzyl)piperazine-1-carbonyl]-1-methyl-1H-indol-5-yloxy}pyridin-3-yl)-N-methyl-4-trifluoromethylbenzamide hydrobromide] | 251 to 255 °C (dec.) |
| Br.CC(C)Oc1ccc(CN2CCN(C(=O)c3cc4ccc(Oc5ccc(NC(=O)c6ccc(Cl)c(Cl)c6)cn5)cc4n3C)CC2)c(F)c1 [Example 265, 3,4-Dichloro-N-(6-{2-[4-(2-fluoro-4-isopropoxybenzyl)piperazine-1-carbonyl]-1-methyl-1H-indol-6-yloxy}pyridin-3-yl)benzamide hydrobromide] | 242.5 to 246.7 °C |
| Br.CN(C(=O)c1ccc(OC(F)(F)F)cc1)c1ccc(Oc2ccc3cc(C(=O)N4CCN(Cc5ccc(OCC(F)(F)F)cc5)CC4)n(C)c3c2)nc1 [Example 456, N-Methyl-N-[6-(1-methyl-2-{4-[4-(2,2,2-trifluoroethoxy)benzyl]-piperazine-1-carbonyl}-1H-indol-6-yloxy)pyridin-3-yl]-4-tri-fluoromethoxybenzamide hydrobromide] | 227.4 to 229.2 °C |
| Br.Cn1c(C(=O)N2CCN(Cc3ccc(O)cc3)CC2)cc2ccc(Oc3ccc(NC(=O)c4ccc(C(F)(F)F)cc4)cn3)cc21 [Example 459, N-(6-{2-[4-(4-Hydroxybenzyl)piperazine-1-carbonyl]-1-methyl-1H-indol-6-yloxy}pyridin-3-yl)-4-trifluoromethylbenzamide hydrobromide] | 241.4 to 242.7 °C |
| Br.CN(C(=O)c1ccc(OC(F)F)cc1)c1ccc(Oc2ccc3cc(C(=O)N4CCN(Cc5ccc(OCC(F)F)cc5)CC4)n(C)c3c2)nc1 [Example 283, N-[6-(2-{4-[4-(2,2-Difluoroethoxy)benzyl]piperazine-1-carbonyl}-1-methyl-1H-indol-6-yloxy)pyridin-3-yl]-4-difluoromethoxy-N-methylbenzamide hydrobromide] | 196.9 to 198.6 °C |
| CC(C)Oc1ccc(CN2CCN(C(=O)c3cc4ccc(Oc5ccc(N(C)S(=O)(=O)c6ccc(Cl)c(Cl)c6)cn5)cc4n3C)CC2)cn1 [Example 517, 3,4-Dichloro-N-(6-{2-[4-(6-isopropoxypyridin-3-ylmethyl)-piperazine-1-carbonyl]-1-methyl-1H-indol-6-yloxy}pyridin-3-yl)-N-methylbenzenesulfonamide] | 179.1 to 179.7 °C |
| CCOc1ccc(CN2CCN(C(=O)c3cc4cc(Oc5ncc(NC(=O)c6ccc(Cl)c(Cl)c6)cn5)ccc4n3C)CC2)cc1 [Example 384, 3,4-Dichloro-N-(2-{2-[4-(4-ethoxybenzyl)piperazine-1-carbonyl]-1-methyl-1H-indol-5-yloxy}pyrimidin-5-yl)benzamide] | 156 to 157 °C |
| Cn1c(C(=O)N2CCN(Cc3ccc4c(c3)OCO4)CC2)cc2cc(Oc3ccc(NC(=O)c4ccc(-n5cccc5)nc4)cn3)ccc21 [Example 225, N-{6-[2-(4-Benzo[1,3]dioxol-5-ylmethylpiperazine-1-carbonyl)-1-methyl-1H-indol-5-yloxy]pyridin-3-yl}-6-pyrrol-1-ylnicotinamide] | 155 to 158 °C |
| Br.Br.Cn1c(C(=O)N2CCN(Cc3ccccn3)CC2)cc2cc(Oc3ccc(NC(=O)c4ccc(Cl)c(Cl)c4)cn3)ccc21 [Example 564, 3,4-Dichloro-N-{6-[1-methyl-2-(4-pyridin-2-ylmethylpiperazine-1-carbonyl)-1H-indol-5-yloxy]pyridin-3-yl}benzamide dihydrobromide] | 231 to 233 °C (dec.) |
| Br.CN(C(=O)c1ccc(OC(F)F)cc1)c1ccc(Oc2ccc3cc(C(=O)N4CCN(Cc5ccc(OC(F)F)cc5)CC4)n(C)c3c2)nc1 [Example 282, 4-Difluoromethoxy-N-(6-{2-[4-(4-difluoromethoxybenzyl)piperazine-1-carbonyl]-1-methyl-1H-indol-6-yloxy}pyridin-3-yl)-N-methyl-benzamide hydrobromide] | 198.7 to 200.5 °C |
| CN(c1ccc(Oc2ccc3cc(C(=O)N4CCN(Cc5ccc(OCC(F)(F)F)cc5)CC4)[nH]c3c2)nc1)S(=O)(=O)c1ccc(C(F)(F)F)cc1 [Example 39, N-Methyl-N-[6-(2-{4-[4-(2,2,2-trifluoroethoxy)benzyl]piperazine-1-carbonyl}-1H-indol-6-yloxy)pyridin-3-yl]-4-trifluoromethyl-benzenesulfonamide] | 200.1 to 200.2 °C |
| CN(C(=O)c1ccc(C(F)(F)F)cc1)c1ccc(Oc2ccc3c(c2)cc(C(=O)N2CCN(C(=O)c4ccc(C#N)cc4)CC2)n3C)nc1 [Example 242, N-(6-{2-[4-(4-Cyanobenzoyl)piperazine-1-carbonyl]-1-methyl-1H-indol-5-yloxy}pyridin-3-yl)-N-methyl-4-trifluoromethylbenzamide] | 135 to 137 °C |
| CN(c1ccc(Oc2ccc3cc(C(=O)N4CCN(Cc5ccc(OCC(F)(F)F)cc5)CC4)[nH]c3c2)nc1)S(C)(=O)=O [Example 285, N-Methyl-N-[6-(2-{4-[4-(2,2,2-trifluoroethoxy)benzyl]piperazine-1-carbonyl}-1H-indol-6-yloxy)pyridin-3-yl]methanesulfonamide] | 167 to 168.1 °C |
| Br.CCCc1ccc(CN2CCN(C(=O)c3cc4ccc(Oc5ccc(NC(=O)c6ccc(C(F)(F)F)cc6)cn5)cc4n3C)CC2)cc1 [Example 478, N-(6-{1-Methyl-2-[4-(4-propylbenzyl)piperazine-1-carbonyl]-1H-indol-6-yloxy}pyridin-3-yl)-4-trifluoromethylbenzamide hydrobromide] | 267 to 268.2 °C |
| CN(C(=O)c1ccc(C(F)(F)F)cc1)c1ccc(Oc2ccc3c(c2)cc(C(=O)N2CCN(Cc4ccc(OCCF)cc4)CC2)n3C)nc1.O=C(O)/C=C\C(=O)O [Example 408, N-[6-(2-{4-[4-(2-Fluoroethoxy)benzyl]piperazine-1-carbonyl}-1-methyl-1H-indol-5-yloxy)pyridin-3-yl]-N-methyl-4-trifluoromethyl-benzamide maleate] | 152 to 154 °C |
| COc1ccc(CN2CCN(C(=O)c3cc4cc(Oc5ccc(N(C)C(=O)c6ccc(Cl)c(Cl)c6)cn5)ccc4n3C)CC2)nc1.O=C(O)/C=C\C(=O)O [Example 389, 3,4-Dichloro-N-(6-{2-[4-(5-methoxypyridin-2-ylmethyl)piperazine-1-carbonyl]-1-methyl-1H-indol-5-yloxy}pyridin-3-yl)-N-methyl-benzamide maleate] | 155 to 156 °C |
| Br.Br.CN(C(=O)c1ccc(C(F)(F)F)cc1)c1ccc(Oc2ccc3c(c2)cc(C(=O)N2CCN(Cc4ccncc4)CC2)n3C)nc1 [Example 548, N-Methyl-N-{6-[1-methyl-2-(4-pyridin-4-ylmethylpiperazine-1-carbonyl)-1H-indol-5-yloxy]pyridin-3-yl}-4-trifluoromethyl-benzamide dihydrobromide] | 196 to 198 °C |
| CC(C)Oc1ccc(CN2CCN(C(=O)c3cc4ccc(Oc5ccc(N(C)C(=O)c6ccc(OC(F)F)cc6)cn5)cc4n3C)CC2)cc1.Cl | 229.7 to 230.4 °C |
| Br.CN(C(=O)c1ccc(Cl)c(Cl)c1)c1ccc(Oc2ccc3cc(C(=O)N4CCN(Cc5ccc(OCC(F)F)cc5)CC4)n(C)c3c2)nc1 [Example 483, 3,4-Dichloro-N-[6-(2-{4-[4-(2,2-difluoroethoxy)benzyl]piperazine-1-carbonyl}-1-methyl-1H-indol-6-yloxy)pyridin-3-yl]-N-methyl-benzamide hydrobromide] | 182.4 to 184.6 °C |
| Cc1ccc(S(=O)(=O)N(C)c2ccc(Oc3ccc4cc(C(=O)N5CCN(Cc6ccc(OC(CF)CF)cc6)CC5)n(C)c4c3)nc2)cc1 [Example 523, N-[6-(2-{4-[4-(2-Fluoro-1-fluoromethylethoxy)benzyl]piperazine-1-carbonyl}-1-methyl-1H-indol-6-yloxy)pyridin-3-yl]-4,N-dimethyl-benzenesulfonamide] | 116.5 to 116.6 °C |
| Br.Cn1c(C(=O)N2CCN(Cc3ccc(C(F)(F)F)cc3)CC2)cc2ccc(Oc3ccc(NC(=O)c4ccc(Cl)c(Cl)c4)cn3)cc21 [Example 262, 3,4-Dichloro-N-(6-{1-methyl-2-[4-(4-trifluoromethylbenzyl)-piperazine-1-carbonyl]-1H-indol-6-yloxy}pyridin-3-yl)benzamide hydrobromide] | 259.4 to 260.7 °C |
| COc1ccc(CN2CCN(C(=O)c3cc4c(Oc5ccc(N(C)C(=O)c6ccc(C(F)(F)F)cc6)cn5)cccc4n3C)CC2)cc1.O=C(O)C(=O)O [Example 325, N-(6-{2-[4-(4-Methoxybenzyl)piperazine-1-carbonyl]-1-methyl-1H-indol-4-yloxy}pyridin-3-yl)-N-methyl-4-trifluoromethylbenzamide oxalate] | 139 to 141 °C |
| Cl.Cn1c(C(=O)N2CCN(Cc3ccc(OCC(F)F)cc3)CC2)cc2ccc(Oc3ncc(NC(=O)c4ccc(C(F)(F)F)cc4)cn3)cc21 | 251.4 to 253.5 °C |
